The subject of this assay is XBP-luciferase reporter. The assay can be described thus: XBP-luciferase reporter assay under Tm or hypoxia. The assay is classed as cell-based, human. The protocol: HT1080 cells stably expressing the XBP-luciferase construct were grown in 60 mm dishes to 60-70% confluency. Following hypoxia treatment, cells were washed twice with PBS, lysed in 400 μl 1× reporter lysis buffer (RLB) (Promega, Madison Wis.) for 30 min at 24° C. Lysates (100 μl) were mixed with an equal volume of luciferase substrate (Promega), and assayed using a luminometer. For 5×-UPRE-luciferase reporter assays, cells were co-transfected with the appropriate reporter plasmid and a control plasmid (pSV40-beta-gal) using Lipofectamine 2000 (Invitrogen, San Diego, Calif.). Twenty-four hours after transfection, fresh media was added, and cells were treated with Tm or shifted to hypoxia. After treatment, cells were lysed in 1× RLB and analyzed for luciferase activity as described above. Beta-galactosidase activity was determined using the beta-galactosidase enzyme assay system (Promega).
A. XBP-luciferase reporter construct. […] After 24 hours, luciferase activity was analyzed in an automated plate reader. For each cell line, values are expressed as the percent inhibition of the median for Tm/Tg-treated wells, corrected for background. […] Values are expressed as the fold increases over uninduced levels. […] Cells were harvested, lysed, and analyzed by immunoblotting with antisera specific for HIF-1α (top), XBP-1s (middle) or actin (bottom). […]

Consider `Cc1csc(NC(=O)CSc2nc3c(c(C(F)(F)F)c2C#N)CCC3)n1` [Compound 9389], for which the “activation of the XBP-luciferase reporter under hypoxia” value (1 μM, hypoxia 24 or 48 hours) is reported as “robustly inhibited this response”. Under “Homo sapiens, Tm 24 hours, read-out: inhibition of Tm-mediated activation of the XBP-luciferase reporter”, the inhibition at 1 µM was above 90%.

Source of the values: patent publication US20090291857A1, “METHODS TO IDENTIFY INHIBITORS OF THE UNFOLDED PROTEIN RESPONSE” (THE BOARD OF TRUSTEES OF THE LELAND STANFORD JUNIOR …, priority 2006, published 2009).
